PubChem BioAssay AID328 (DTP/NCI, 2004)
Where “and” joins values, the source holds several entries; their conditions need not be identical. Equal entries are not always repeated. Toxic doses and inconclusive results are not listed.

System: BDF1 mice, P388 leukemia ip, median survival T/C
Experiment: NCI In Vivo Anticancer Drug Screen. Data for tumor model P388 Leukemia (intraperitoneal) in B6D2F1 (BDF1) mice
Conditions: endpoint: median survival time, higher = longer survival
Outline: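 Survival ratio, drug arm over vehicle arm, in mice with a transplanted tumour.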

[1] = dose: 50.0 mg/kg/injection, schedule: Q04DX003 (ip), vehicle: saline with Tween-80
[2] = dose: 100.0 mg/kg/injection, schedule: Q01DX009 (ip), vehicle: saline with Tween-80
[3] = dose: 100.0 mg/kg/injection, schedule: Q04DX003 (ip), vehicle: saline with Tween-80
[4] = dose: 200.0 mg/kg/injection, schedule: Q01DX009 (ip), vehicle: saline with Tween-80

For `COC(=O)/C(=N\NS(=O)(=O)c1ccc(C)cc1)c1ccccc1`, the T/C (dose: 25.0 mg/kg/injection, schedule: Q04DX003 (ip), vehicle: Klucel (hydroxypropylcellulose) (HPC)) was 98 % of control, the T/C (dose: 50.0 mg/kg/injection, schedule: Q04DX003 (ip), vehicle: Klucel (hydroxypropylcellulose) (HPC)) was 100 % of control and the T/C (dose: 100.0 mg/kg/injection, schedule: Q04DX003 (ip), vehicle: Klucel (hydroxypropylcellulose) (HPC)) was 94 % of control. For the same compound, the T/C (dose: 200.0 mg/kg/injection, schedule: Q04DX003 (ip), vehicle: Klucel (hydroxypropylcellulose) (HPC)) was 93 % of control.

In the case of `O=C1C(N2CCOCC2)=Cc2cccc3cccc1c23`, the T/C [1] was 99 % of control, the T/C [2] was 101 % of control and the T/C [3] was 96 % of control. For the same compound, the T/C [4] was 90 % of control, the T/C (dose: 200.0 mg/kg/injection, schedule: Q04DX003 (ip), vehicle: saline with Tween-80) was 88 % of control and the T/C (dose: 400.0 mg/kg/injection, schedule: Q04DX003 (ip), vehicle: saline with Tween-80) was 99 % of control.

With `C=C1CC(OC(=O)c2ccc([N+](=O)[O-])cc2)C1` the T/C (dose: 50.0 mg/kg/injection, schedule: Q01DX009 (ip), vehicle: saline with Tween-80) was 111 % of control, the T/C [2] was 111 % of control and the T/C [4] was 90 % of control.

In the case of `C=C1C(=O)OC2C1CC/C(C)=C/CCC1(C)OC21` (stereo unspecified), the T/C (dose: 70.0 mg/kg/injection, schedule: Q01DX009 (ip), vehicle: Klucel (hydroxypropylcellulose) (HPC)) was 116 % of control.

For `O=C(O)c1c[nH]c2nccnc12`, the T/C (dose: 25.0 mg/kg/injection, schedule: Q01DX009 (ip), vehicle: water) was 98 % of control, the T/C (dose: 25.0 mg/kg/injection, schedule: Q04DX003 (ip), vehicle: water) was 103 % of control and the T/C (dose: 50.0 mg/kg/injection, schedule: Q04DX003 (ip), vehicle: water) was 99 % of control. For the same compound, the T/C (dose: 100.0 mg/kg/injection, schedule: Q01DX009 (ip), vehicle: water) was 88 % of control, the T/C (dose: 100.0 mg/kg/injection, schedule: Q04DX003 (ip), vehicle: water) was 103 % of control and the T/C (dose: 200.0 mg/kg/injection, schedule: Q04DX003 (ip), vehicle: water) was 103 % of control. The T/C (dose: 400.0 mg/kg/injection, schedule: Q04DX003 (ip), vehicle: water) was 92 % of control.

With `COC(C)C(Br)C(=O)O` (stereo unspecified) the T/C (dose: 100.0 mg/kg/injection, schedule: Q01DX009 (ip), vehicle: saline) was 88 % of control, the T/C (dose: 100.0 mg/kg/injection, schedule: Q04DX003 (ip), vehicle: saline) was 100 % of control and the T/C (dose: 200.0 mg/kg/injection, schedule: Q01DX009 (ip), vehicle: saline) was 92 % of control. The T/C (dose: 200.0 mg/kg/injection, schedule: Q04DX003 (ip), vehicle: saline) was 91 % of control and the T/C (dose: 400.0 mg/kg/injection, schedule: Q04DX003 (ip), vehicle: saline) was 91 % of control.

`COC(=O)C1CCN(Cc2c[nH]c3ccccc23)CC1` was tested, and the T/C (dose: 12.5 mg/kg/injection, schedule: Q04DX003 (ip), vehicle: saline with Tween-80) was 96 % of control, the T/C (dose: 25.0 mg/kg/injection, schedule: Q04DX003 (ip), vehicle: saline with Tween-80) was 96 % of control and the T/C [1] was 111 % of control. The T/C [3] was 102 % of control.

`CSc1nc2n(C)cc(C)cc-2c(=O)n1` was tested, and the T/C (dose: 100.0 mg/kg/injection, schedule: Q01DX001 (ip), vehicle: suspension in saline) was 90 % of control.

`O=C(CCC(=O)[O][Sn]([c]1ccccc1)([c]1ccccc1)[c]1ccccc1)[O][Sn]([c]1ccccc1)([c]1ccccc1)[c]1ccccc1` was tested, and the T/C (dose: 0.39 mg/kg/injection, schedule: Q01DX009 (ip), vehicle: Klucel (hydroxypropylcellulose) (HPC)) was 113 % of control, the T/C (dose: 0.78 mg/kg/injection, schedule: Q01DX009 (ip), vehicle: Klucel (hydroxypropylcellulose) (HPC)) was 95 % of control and the T/C (dose: 1.56 mg/kg/injection, schedule: Q01DX009 (ip), vehicle: Klucel (hydroxypropylcellulose) (HPC)) was 95 % of control. The T/C (dose: 3.12 mg/kg/injection, schedule: Q01DX009 (ip), vehicle: Klucel (hydroxypropylcellulose) (HPC)) was 100 % of control and 104 % of control, the T/C (dose: 12.5 mg/kg/injection, schedule: Q01DX009 (ip), vehicle: Klucel (hydroxypropylcellulose) (HPC)) was 120 % of control and the T/C (dose: 40.0 mg/kg/injection, schedule: Q04DX003 (ip), vehicle: Klucel (hydroxypropylcellulose) (HPC)) was 104 % of control.

With `CCCCCCCCCCCCCCCCCSCCCCCSCCCCCCCCCCCCCCCCC` the T/C (dose: 100.0 mg/kg/injection, schedule: Q01DX001 (ip), vehicle: saline with Tween-80) was 90 % of control and the T/C (dose: 400.0 mg/kg/injection, schedule: Q01DX001 (ip), vehicle: saline with Tween-80) was 86 % of control.

With `CCOC(=O)c1[nH]cnc1/N=N/N(C)C` the T/C (dose: 26.4 mg/kg/injection, schedule: Q01DX009 (ip), vehicle: saline with Tween-80) was 175 % of control and the T/C (dose: 60.0 mg/kg/injection, schedule: Q01DX009 (ip), vehicle: saline with Tween-80) was 87 % of control.
